Laboratory results: US9125828B2, “MOC compositions” (Givaudan SA, priority 2010, dated 2015)

Tested on: axillary malodour
Assay: Deodorancy of pro-perfumes compared with their breakdown products
Assay type: in vivo
Settings: pro perfumes that undergo scission when exposed to UV light; no data given
Description: The effectiveness of compositions of the present invention comprising 2-Ethoxy-4-formylphenyl (E)-3-(2-hydroxyphenyl) acrylate and/or (E)-Dec-9-enyl 3-(2-hydroxyphenyl) acrylate, two group A materials, in axillary malodour counteracting deodorant is particularly surprising. These materials are pro perfumes that undergo scission into other compounds when exposed to UV light, this is disclosed in EP 936211. The use of materials that require light activation is counter-intuitive for application in underarm products such as deodorants and antiperspirants.

Compound	deodorancy relative to breakdown products
CCOc1cc(C=O)ccc1OC(=O)/C=C/c1ccccc1O [2-Ethoxy-4-formylphenyl (E)-3-(2-hydroxyphenyl)acrylate]	better deodorancy than their breakdown products
C=CCCCCCCCCOC(=O)/C=C/c1ccccc1O [(E)-Dec-9-enyl 3-(2-hydroxyphenyl)acrylate]	better deodorancy than their breakdown products
